These compounds were tested on alpha-smooth muscle actin (α-SMA) (assay: Inhibition of TGF-β induced expression of alpha-smooth muscle actin (α-SMA) in CFSC cells, western blot). Settings: compound at 10 μM, TGF-β (10 ng/mL), 24 hours, decrease in band intensity vs TGF-β only.
Assay type: cell-based
Description: The ability of a compound to inhibit the TGF-β induced expression of alpha-smooth muscle actin (α-SMA) was evaluated in CCL4-treated fat storing (CFSC) cells. α-SMA is considered as a reliable marker of hepatic stellate cell activation and a key biomarker for liver fibrosis. See, e.g., Meng et al., Nat. Rev. Nephrol. 2016, 12, 325-38; Fabregat et al., FEBS J. 2016, 283, 2219-32.
CFSC cells maintained in a DMEM medium supplemented with 10% fetal bovine serum were seeded to 12-well culture dishes and grown to a confluence of 60-70% the next day. Culture was changed to a serum-free DMEM medium and treated with a compound at 10 μM in the presence of TGF-β (10 ng/mL). The cells were incubated for another 24 hours. All culture was maintained at 37° C. in 5% carbon dioxide.
A NP-40 lysate solution (50 mM Tris (pH 7.4), 150 mM NaCl, 1% NP-40) with EDTA free cocktail added was used to lyse the cells on ice for 30 min. The lysate was collected and centrifuged at 4° C. for 10 min at 12,000 rpm. The pellet was discarded and the supernatant was transferred to a new tube. Cell lysates were loaded with 5×loading buffer and boiled for 10 min, resolved by 10% SDS-polyacrylamide gel electrophoresis (SDS-PAGE), and transferred to PVDF membrane. The membrane was blocked with 5% skim milk in Tris-buffered saline and TWEEN® 20 (TBST; 10 mM Tris-HCl (pH 8.0), 150 mM NaCl, 0.1% TWEEN® 20) for 1 h at room temperature and then incubated with α-SMA and […] antibodies overnight at 4° C. After washing twice with TBST, the membrane was probed with a horseradish […] anti-immunoglobulin (1:5000 dilution) for 1 h at room temperature. After two subsequent rinses in TBST, immunoreactive products were reacted with ECL and visualized by a UVP CHEMSTUDIO™ imaging system. The western blotting bands are quantitated using an ImageJ software. The percentage of inhibition was obtained by calculating the percentage decrease in the band intensity compared to the one treated with TGF-β only.
The results are summarized in Table 1, wherein A represents a value no less of 90% inhibition, B represents a value less than 90% but no less than 80% inhibition, C represents a value less than 80% but no less than 70% inhibition, D represents a value less than 70% but no less than 50% inhibition, and E represents a value less than 50% with a compound at 10 μM.

First: CCCN(c1ccc(F)cc1)c1ccc(/C=C2/C(C)=C(CC(=O)O)c3cc(F)ccc32)cc1 [Compound A33, 2-[(1Z)-5-Fluoro-1-({4-[(4-fluorophenyl)(propyl)amino]phenyl}methylidene)-2-methyl-1H-inden-3-yl]acetic acid]
Second: CC1=C(CC(=O)O)c2cc(F)ccc2/C1=C\c1ccc(N(CCO)c2ccc(F)cc2)cc1 [Compound A34, 2-[(1Z)-5-Fluoro-1-({4-[(4-fluorophenyl)(2-hydroxyethyl)amino]phenyl}-methylidene)-2-methyl-1H-inden-3-yl]acetic acid]
The inhibition at 10 µM of the first is lower: 70 to 80% for the first, over 90% for the second.

CC1=C(CC(=O)O)c2cc(F)ccc2/C1=C\c1ccc(N(c2ccc(F)cc2)c2ccc(C=O)cc2)cc1 [Compound A35, 2-[(1Z)-5-Fluoro-1-({4-[(4-fluorophenyl)(4-formylphenyl)amino]phenyl}-methylidene)-2-methyl-1H-inden-3-yl]acetic acid] and CC1=C(CC(=O)O)c2cc(F)ccc2/C1=C\c1ccc(N(c2ccccc2)c2ccc(C=O)cc2)cc1 [Compound A36, 2-[(1Z)-5-Fluoro-1-({4-[(4-formylphenyl)(phenyl)amino]phenyl}methylidene)-2-methyl-1H-inden-3-yl]acetic acid] cannot be ordered by inhibition at 10 µM: over 90% for the first, over 90% for the second.

Compared with CC1=C(CC(=O)NO)c2cc(F)ccc2/C1=C\c1ccc(N(Cc2ccccc2)c2ccc(F)cc2)cc1 [Compound A38, 2-[(1Z)-1-({4-[Benzyl(4-fluorophenyl)amino]phenyl}methylidene)-5-fluoro-2-methyl-1H-inden-3-yl]-N-hydroxyacetamide], CC1=C(CC(=O)NO)c2cc(F)ccc2/C1=C\c1ccc(N(CCO)c2ccc(F)cc2)cc1 [Compound A85, 2-[(1Z)-5-Fluoro-1-({4-[(4-fluorophenyl)(2-hydroxyethyl)amino]phenyl}-methylidene)-2-methyl-1H-inden-3-yl]-N-hydroxyacetamide] is higher in inhibition at 10 µM: 70 to 80% for the first, over 90% for the second.

CC1=C(Cc2nnn[nH]2)c2ccccc2/C1=C\c1cccc(Oc2ccccc2)c1 [Compound A39, 5-{[(1Z)-2-Methyl-1-[(3-phenoxyphenyl)methylidene]-1H-inden-3-yl]methyl}-1H-1,2,3,4-tetrazole] and CC1=C(Cc2nnn[nH]2)c2ccccc2/C1=C\c1ccc(Oc2ccccc2)cc1 [Compound A40, 5-{[(1Z)-2-Methyl-1-[(4-phenoxyphenyl)methylidene]-1H-inden-3-yl]methyl}-1H-1,2,3,4-tetrazole] cannot be ordered by inhibition at 10 µM: over 90% for the first, over 90% for the second.

First: CC1=C(CCc2nnn[nH]2)c2ccccc2/C1=C\c1ccc(Oc2ccc(Br)cc2)cc1 [Compound A42, 5-{2-[(1Z)-1-{[4-(4-Bromophenoxy)phenyl]methylidene}-2-methyl-1H-inden-3-yl]ethyl}-1H-1,2,3,4-tetrazole]
Second: CC1=C(CCc2nnn[nH]2)c2ccccc2/C1=C\c1ccc(Oc2ccc(C(C)C)cc2)cc1 [Compound A43, 5-{2-[(1Z)-2-Methyl-1-({4-[4-(propan-2-yl)phenoxy]phenyl}methylidene)-1H-inden-3-yl]ethyl}-1H-1,2,3,4-tetrazole]
The inhibition at 10 µM of the first is lower: 70 to 80% for the first, over 90% for the second.

CC1=C(CCc2nnn[nH]2)c2ccccc2/C1=C\c1ccc(Oc2ccc(C(F)(F)F)cc2)cc1 [Compound A45, 5-{2-[(1Z)-2-Methyl-1-({4-[4-(trifluoromethyl)phenoxy]phenyl}methylidene)-1H-inden-3-yl]ethyl}-1H-1,2,3,4-tetrazole] and CC1=C(CCc2nnn[nH]2)c2ccccc2/C1=C\c1ccc(Oc2cccc(C)c2)cc1 [Compound A46, 5-{2-[(1Z)-2-Methyl-1-{[4-(3-methylphenoxy)phenyl]methylidene}-1H-inden-3-yl]ethyl}-1H-1,2,3,4-tetrazole] cannot be ordered by inhibition at 10 µM: over 90% for the first, over 90% for the second.

CC1=C(CCc2nnn[nH]2)c2ccccc2/C1=C\c1ccc(Oc2cccc(C#N)c2)cc1 [Compound A47, 3-(4-{[(1Z)-2-Methyl-3-[2-(1H-1,2,3,4-tetrazol-5-yl)ethyl]-1H-inden-1-ylidene]methyl}phenoxy)benzonitrile] and COc1cccc(Oc2ccc(/C=C3/C(C)=C(CCc4nnn[nH]4)c4ccccc43)cc2)c1 [Compound A48, 5-{2-[(1Z)-1-{[4-(3-Methoxyphenoxy)phenyl]methylidene}-2-methyl-1H-inden-3-yl]ethyl}-1H-1,2,3,4-tetrazole] cannot be ordered by inhibition at 10 µM: over 90% for the first, over 90% for the second.

CC1=C(CCc2nnn[nH]2)c2ccccc2/C1=C\c1ccc(Oc2ccc3ccccc3c2)cc1 [Compound A51, 5-{2-[(1Z)-2-Methyl-1-{[4-(naphthalen-2-yloxy)phenyl]methylidene}-1H-inden-3-yl]ethyl}-1H-1,2,3,4-tetrazole] and CC1=C(CCc2nnn[nH]2)c2ccccc2/C1=C\c1ccc(C(C)C)cc1 [Compound B30, (Z)-5-(2-(1-(4-isopropylbenzylidene)-2-methyl-1H-inden-3-yl)ethyl)-1H-tetrazole] cannot be ordered by inhibition at 10 µM: over 90% for the first, over 90% for the second.

C1=C(Cc2nnn[nH]2)c2ccccc2/C1=C/c1cccc(Oc2ccccc2)c1 [Compound A54, 5-{[(1E)-1-[(3-Phenoxyphenyl)methylidene]-1H-inden-3-yl]methyl}-1H-1,2,3,4-tetrazole] and CC1=C(CC(=O)O)c2cc(F)ccc2/C1=C\c1ccc2ccccc2c1 [Compound B34, 2-[(1Z)-5-fluoro-2-methyl-1-[(naphthalen-2-yl)methylidene]-1H-inden-3-yl]acetic acid] cannot be ordered by inhibition at 10 µM: over 90% for the first, over 90% for the second.

CC1=C(CC(=O)O)c2cc(F)ccc2/C1=C\c1ccc(N2CCOCC2)cc1 [Compound A55, 2-[(1Z)-5-Fluoro-2-methyl-1-{[4-(morpholin-4-yl)phenyl]methylidene}-1H-inden-3-yl]acetic acid] and CC1=C(CC(=O)O)c2cc(F)ccc2/C1=C\c1ccc(-n2cccc2)cc1 [Compound A60, 2-[(1Z)-5-Fluoro-2-methyl-1-{[4-(1H-pyrrol-1-yl)phenyl]methylidene}-1H-inden-3-yl]acetic acid] cannot be ordered by inhibition at 10 µM: under 50% for the first, under 50% for the second.

CC1=C(CC(=O)O)c2c(ccc(F)c2F)/C1=C\c1ccc(Oc2ccc(F)cc2)cc1 [Compound A68, 2-[(1Z)-4,5-Difluoro-1-{[4-(4-fluorophenoxy)phenyl]methylidene}-2-methyl-1H-inden-3-yl]acetic acid] and CC1=C(CC(=O)O)c2c(ccc(F)c2C)/C1=C\c1ccc(Oc2ccc(F)cc2)cc1 [Compound A69, 2-[(1Z)-5-Fluoro-1-{[4-(4-fluorophenoxy)phenyl]methylidene}-2,4-dimethyl-1H-inden-3-yl]acetic acid] cannot be ordered by inhibition at 10 µM: over 90% for the first, over 90% for the second.

Compared with CC1=C(CC(=O)O)c2cc(F)ccc2/C1=C\c1ccc(C(C)(C)C)cc1 [Compound B10, (Z)-2-(5-fluoro-2-methyl-1-(4-t-butylbenzylidene)-1H-inden-3-yl)acetic acid], CC1=C(CC(=O)O)c2cc(F)ccc2/C1=C\c1ccc(C)c2ccccc12 [Compound B35, 2-[(1Z)-5-fluoro-2-methyl-1-[(4-methylnaphthalen-1-yl)methylidene]-1H-inden-3-yl]acetic acid] is higher in inhibition at 10 µM: 70 to 80% for the first, over 90% for the second.

COc1ccc2ccccc2c1/C=C1/C(C)=C(CC(=O)O)c2cc(F)ccc21 [Compound B36, 2-[(1Z)-5-fluoro-1-[(2-methoxynaphthalen-1-yl)methylidene]-2-methyl-1H-inden-3-yl]acetic acid] was tested, and the inhibition at 10 µM was over 90%.
